Measured values reported in the supplement of paper PMC10307832.

Tests used:
Test in all cases: relative viability (nuclei count vs DMSO), 5 days (fraction); higher = more cells survive
[1] = compound: C[C@@]1(C(=O)Nc2ccc(F)nc2)CCCN1c1nc(Nc2cc(C3CC3)n[nH]2)c2cccn2n1 + CC(C)C[C@H](NC(=O)[C@H](Cc1ccccc1)NC(=O)c1cnccn1)B(O)O [Bortezomib] (partner 0.002 µM)
How it was run: (§1)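 Relative viability divides the nuclei count in treated wells by that in vehicle wells. Lung cancer cell lines were seeded in 1536-well plates, dosed by pin tool the next day, and fixed and stained after 5 days in one step with final 0.05% Triton X-100, 1% formaldehyde and 1 ug/ml Hoechst. Dosing was a single drug or a fixed anchor-drug dose plus five library-drug doses (not always all listed) in √10 steps, and values are medians of duplicate plates imaged at 4×.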

[2] = compound: CC1(C)CNc2cc(NC(=O)c3cccnc3NCc3ccncc3)ccc21 [Motesanib] + Cc1nc(NC(=O)N2CCC[C@H]2C(N)=O)sc1-c1ccnc(C(C)(C)C(F)(F)F)c1 [Alpelisib] (partner 2 µM)
How it was run: as §1

[3] = compound: CC1(C)CNc2cc(NC(=O)c3cccnc3NCc3ccncc3)ccc21 [Motesanib]
How it was run: (§2)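 Viability was defined as treated-well nuclei divided by vehicle-well nuclei, with the median taken over replicate plates. Cells from lung cancer lines sat overnight at 37 °C in 1536-well plates, received five √10-spaced library-drug doses by pinning on vehicle-anchored plates, and grew 5 days without medium change before one-step fixation, permeabilisation and Hoechst staining, 4× imaging and MetaXpress nuclear counts. Only plates with control CV under 25% and at least one doubling were kept.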

[4] = compound: C[C@@]1(C(=O)Nc2ccc(F)nc2)CCCN1c1nc(Nc2cc(C3CC3)n[nH]2)c2cccn2n1
How it was run: as §2

Row | Cell Line | relative viability ([1]; first compound 0.04 µM) | relative viability ([1]; first compound 0.1265 µM) | relative viability ([1]; first compound 0.4 µM) | relative viability ([1]; first compound 1.265 µM) | relative viability ([2]; first compound 0.01 µM) | relative viability ([2]; first compound 0.03162 µM) | relative viability ([2]; first compound 0.1 µM) | relative viability ([2]; first compound 0.3162 µM) | relative viability ([2]; first compound 1 µM) | relative viability ([3]; 0.01 µM) | relative viability ([3]; 0.03162 µM) | relative viability ([3]; 0.1 µM) | relative viability ([3]; 0.3162 µM) | relative viability ([3]; 1 µM) | relative viability ([4]; 0.04 µM) | relative viability ([4]; 0.1265 µM) | relative viability ([4]; 0.4 µM) | relative viability ([4]; 1.265 µM)
1 | NCI-H1975 | 0.344 | 0.34 | 0.299 | 0.308 | 0.681 | 0.588 | 0.615 | 0.61 | 0.675 | 0.876 | 0.914 | 0.996 | 0.995 | 0.98 | 0.943 | 0.981 | 0.649 | 0.754
2 | CAL-12T | 1.12 | 0.826 | 0.957 | 0.734 | 1.22 | 1.31 | 1.26 | 1.44 | 1.11 | 0.951 | 0.975 | 0.967 | 1.05 | 0.965 | 1.03 | 0.863 | 0.884 | 0.664
3 | NCI-H1623 |  |  |  |  |  |  |  |  |  | 1.06 | 1.08 | 0.901 | 0.964 | 0.926 | 0.809 | 0.79 | 0.678 | 0.622
4 | HCC-44 | 0.862 | 0.81 | 0.648 | 0.685 | 0.771 | 0.774 | 0.862 | 0.785 | 0.827 | 0.978 | 0.957 | 1.02 | 1.04 | 0.989 | 0.99 | 0.904 | 0.716 | 0.737
5 | EKVX | 1.01 | 1.05 | 0.796 | 0.926 | 0.778 | 0.883 | 0.875 | 0.922 | 0.895 | 0.919 | 1 | 1.01 | 0.928 | 1.08 | 0.963 | 0.762 | 0.733 | 0.815
6 | NCI-H1651 | 0.956 | 0.871 | 0.864 | 0.825 | 0.987 | 0.909 | 0.823 | 0.883 | 1.06 | 1.02 | 0.912 | 0.946 | 0.962 | 0.947 | 0.956 | 0.883 | 0.82 | 0.923
7 | NCI-H1944 |  |  |  |  | 0.785 | 0.853 | 0.89 | 0.885 | 0.855 | 0.946 | 0.961 | 0.914 | 1.05 | 0.989 | 0.768 | 0.75 | 0.63 | 0.663
8 | NCI-H1703 | 0.349 | 0.328 | 0.415 | 0.237 | 0.294 | 0.283 | 0.211 | 0.183 | 0.239 | 0.911 | 0.901 | 0.52 | 0.286 | 0.236 | 0.97 | 0.807 | 0.716 | 0.778
9 | NCI-H358 |  |  |  |  | 0.949 | 0.938 | 0.88 | 0.839 | 1.02 | 0.973 | 0.948 | 0.959 | 1.16 | 1.2 | 0.752 | 0.46 | 0.237 | 0.326
10 | NCI-H1793 |  |  |  |  | 0.795 | 0.673 | 0.75 | 0.761 | 0.676 | 0.865 | 1.02 | 0.867 | 0.963 | 0.967 | 0.974 | 0.738 | 0.67 | 1.04
11 | ChaGo-K-1 | 1.01 | 0.797 | 1.1 | 0.824 |  |  |  |  |  | 0.973 | 0.931 | 0.932 | 0.999 | 1.04 | 0.955 | 0.826 | 0.899 | 0.914
12 | NCI-H2342 |  |  |  |  |  |  |  |  |  | 0.902 | 0.976 | 1.05 | 0.928 | 1.06 | 1.16 | 0.863 | 0.805 | 0.7
13 | NCI-H1650 | 0.185 | 0.248 | 0.185 | 0.174 |  |  |  |  |  | 1.03 | 0.792 | 1.06 | 0.947 | 0.927 | 0.894 | 0.843 | 0.798 | 0.699
14 | SW 900 |  |  |  |  |  |  |  |  |  | 0.834 | 0.782 | 0.809 | 0.9 | 0.799 | 0.746 | 0.727 | 0.81 | 0.673
15 | SK-MES-1 |  |  |  |  | 1.04 | 0.948 | 0.961 | 0.927 | 0.995 | 1.01 | 1.02 | 1.06 | 1.01 | 1.02 | 1.03 | 0.955 | 0.796 | 0.921
16 | NCI-H1648 |  |  |  |  |  |  |  |  |  | 0.744 | 0.658 | 0.71 | 1.1 | 0.556 | 0.837 | 0.57 | 0.499 | 0.636
17 | NCI-H522 |  |  |  |  |  |  |  |  |  | 0.939 | 1.01 | 1.06 | 1.06 | 1.07 | 0.925 | 0.836 | 0.754 | 0.878
18 | LK-2 |  |  |  |  | 1.06 | 0.962 | 1.44 | 1.05 | 1.19 | 1.05 | 0.945 | 0.914 | 1.05 | 1.02 | 0.623 | 1.06 | 0.508 | 0.636
19 | NCI-H1395 |  |  |  |  | 1.04 | 0.922 | 0.992 | 0.998 | 1.02 | 0.814 | 0.84 | 0.95 | 0.866 | 0.924 | 0.916 | 0.825 | 0.922 | 0.755
20 | A549 |  |  |  |  | 0.785 | 0.866 | 0.728 | 0.779 | 0.909 | 0.951 | 0.958 | 1 | 1.01 | 1.02 | 0.869 | 0.693 | 0.509 | 0.589
21 | NCI-H2170 |  |  |  |  | 0.803 | 0.789 | 0.824 | 0.785 | 0.794 | 0.928 | 0.948 | 0.939 | 1.01 | 1.02 | 0.945 | 0.994 | 0.958 | 0.976
